Here are results for 26 compounds from patent US7851474B2, “Dipiperazinyl ketones and related analogues” (Neurogen Corporation, priority 2005, dated 2010).

The target of the experiment is T1, chimeric human H3 receptor (Homo sapiens, UniProt Q9Y5N1, E19D).
T1 construct: made in house; host or cells: Sf9 insect cells (baculovirus infection); P2 membrane preparation
Description: Chimeric human H3 receptor screening GTP binding assay (inhibition of histamine-stimulated GTP-gamma35S binding, Example 8). As to conditions: 1 h, read-out: percent inhibition of agonist-induced GTP-gammaS binding to H3. The format is biochemical. The gist of the method: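 Sf9 membranes co-expressing the chimeric receptor and a heterotrimeric G-protein (35 μg protein) in Tris pH 7.4 buffer with 10 μM GDP; compound at 4 μM plus 1 μM histamine, 125 pM GTP-gamma35S, 60 min at room temperature. Filter-bound radioactivity read; non-specific binding defined with 10 uM GTP-gammaS; percent inhibition of histamine signal.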
Background: Binding of GTPγS marks nucleotide exchange on a G protein.

[1] abbreviates: Table II, "+" in the column headed Ki, assay of Example 8.
Setting [2] is: assay described in Example 8, symbol + in column headed Ki of Table II.
Where [3] appears, read: "+" in Ki of Table II, assay of Example 8.

Where two headings read alike, the source gives them in different places.

T1 sequence (Q9Y5N1 with tags, fused parts or gaps E19D): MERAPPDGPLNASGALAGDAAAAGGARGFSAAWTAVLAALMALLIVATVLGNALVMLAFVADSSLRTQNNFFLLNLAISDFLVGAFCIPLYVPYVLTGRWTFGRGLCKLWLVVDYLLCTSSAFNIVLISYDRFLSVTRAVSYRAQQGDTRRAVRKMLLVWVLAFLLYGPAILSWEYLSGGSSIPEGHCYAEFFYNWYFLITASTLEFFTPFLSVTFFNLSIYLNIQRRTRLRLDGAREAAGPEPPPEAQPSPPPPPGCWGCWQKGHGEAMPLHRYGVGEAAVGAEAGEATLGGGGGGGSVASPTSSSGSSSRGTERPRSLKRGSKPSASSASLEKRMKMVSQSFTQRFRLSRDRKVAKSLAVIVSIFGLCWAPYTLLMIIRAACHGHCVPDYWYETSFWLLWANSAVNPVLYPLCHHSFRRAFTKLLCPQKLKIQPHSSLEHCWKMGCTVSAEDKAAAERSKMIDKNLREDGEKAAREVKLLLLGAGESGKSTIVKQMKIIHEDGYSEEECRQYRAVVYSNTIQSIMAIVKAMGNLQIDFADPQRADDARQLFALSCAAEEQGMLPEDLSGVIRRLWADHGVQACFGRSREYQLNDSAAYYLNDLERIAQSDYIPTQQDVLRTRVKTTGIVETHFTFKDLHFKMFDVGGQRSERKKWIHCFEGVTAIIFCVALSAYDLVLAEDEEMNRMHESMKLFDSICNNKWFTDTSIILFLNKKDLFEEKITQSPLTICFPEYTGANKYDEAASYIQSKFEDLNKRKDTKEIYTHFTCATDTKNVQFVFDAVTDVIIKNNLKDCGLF

Usually inhibition stands for how much of the control response was suppressed. Consider `Cc1cccc(C(=O)N2CCN(CC(=O)N3CCN(C4CCC4)CC3)CC2)c1C` [Compound 671, 1-cyclobutyl-4-{[4-(2,3-dimethylbenzoyl)piperazin-1-yl]acetyl}piperazine], for which the inhibition at 4 µM under setting [1] was greater than 90%. With `COc1cc(Cl)ccc1C(=O)N1CCN(CC(=O)N2CCN(C3CCC3)CC2)CC1` [Compound 342, 1-(4-chloro-2-methoxybenzoyl)-4-[2-(4-cyclobutylpiperazin-1-yl)-2-oxoethyl]piperazine], the inhibition at 4 µM under setting [2] is greater than 90%. Take `O=C(CN1CCN(C(=O)c2cccnc2Sc2ccccc2)CC1)N1CCN(C2CCC2)CC1` [Compound 620, 1-cyclobutyl-4-[(4-{[2-(phenylthio)pyridin-3-yl]carbonyl}piperazin-1-yl)acetyl]piperazine]: under setting [1], the inhibition at 4 µM is greater than 90%. Turning to `Cc1ccc(C)c(C(=O)N2CCN(CC(=O)N3CCN(C4CCC4)CC3)CC2)c1` [Compound 689, 1-cyclobutyl-4-{[4-(2,5-dimethylbenzoyl)piperazin-1-yl]acetyl}piperazine], the inhibition at 4 µM under setting [1] was greater than 90%.

As to `Cn1nc(C(C)(C)C)cc1C(=O)N1CCN(CC(=O)N2CCN(C3CCC3)CC2)CC1` [Compound 401, 1-[(3-tert-butyl-1-methyl-1H-pyrazol-5-yl)carbonyl]-4-[2-(4-cyclobutylpiperazin-1-yl)-2-oxoethyl]piperazine], the inhibition at 4 µM under setting [2] was greater than 90%.

As to `Cc1cc(C(=O)N2CCN(CC(=O)N3CCN(C4CCC4)CC3)CC2)n(C(C)(C)C)n1` [Compound 377, 1-[(1-tert-butyl-3-methyl-1H-pyrazol-5-yl)carbonyl]-4-[2-(4-cyclobutylpiperazin-1-yl)-2-oxoethyl]piperazine], the inhibition at 4 µM under setting [2] was greater than 90%. Consider `O=C(COc1ccc(Cl)cc1)N1CCN(CC(=O)N2CCN(C3CCC3)CC2)CC1` [Compound 406, 1-[(4-chlorophenoxy)acetyl]-4-[2-(4-cyclobutylpiperazin-1-yl)-2-oxoethyl]piperazine], for which, under setting [2], the inhibition at 4 µM is greater than 90%. `O=C(/C=C/c1ccccc1)N1CCN(CC(=O)N2CCN(C3CCC3)CC2)CC1` [Compound 532, 1-cyclobutyl-4-({4-[(2E)-3-phenylprop-2-enoyl]piperazin-1-yl}acetyl)piperazine]: the inhibition at 4 µM under setting [3] was greater than 90%. `CC(C)c1ccc(CC(=O)N2CCN(CC(=O)N3CCN(C4CCC4)CC3)CC2)cc1` [Compound 560, 1-cyclobutyl-4-({4-[(4-isopropylphenyl)acetyl]piperazin-1-yl}acetyl)piperazine]: the inhibition at 4 µM under setting [3] is greater than 90%. `O=C(/C=C/c1ccc(OCc2ccc(F)cc2)cc1)N1CCN(CC(=O)N2CCN(C3CCC3)CC2)CC1` [Compound 531, 1-cyclobutyl-4-({4-[(2E)-3-{4-[(4-fluorobenzyl)oxy]phenyl}prop-2-enoyl]piperazin-1-yl}acetyl)piperazine]: the inhibition at 4 µM under setting [3] was greater than 90%. The same measure, in the same setting: to `COc1cccc(OCC(=O)N2CCN(CC(=O)N3CCN(C4CCC4)CC3)CC2)c1` [Compound 551, 1-cyclobutyl-4-({4-[(3-methoxyphenoxy)acetyl]piperazin-1-yl}acetyl)piperazine] belongs greater than 90%. As for `CSc1ccccc1C(=O)N1CCN(CC(=O)N2CCN(C3CCC3)CC2)CC1` [Compound 577, 1-cyclobutyl-4-({4-[2-(methylthio)benzoyl]piperazin-1-yl}acetyl)piperazine], under setting [1], the inhibition at 4 µM was greater than 90%. Take `COc1ncc(Cl)cc1C(=O)N1CCN(CC(=O)N2CCN(C3CCC3)CC2)CC1` [Compound 413, 1-[(5-chloro-2-methoxypyridin-3-yl)carbonyl]-4-[2-(4-cyclobutylpiperazin-1-yl)-2-oxoethyl]piperazine]: the inhibition at 4 µM under setting [2] was greater than 90%.

In the case of `O=C(CN1CCN(C(=O)c2cccs2)CC1)N1CCN(C2CCC2)CC1` [Compound 723, 1-cyclobutyl-4-{[4-(2-thienylcarbonyl)piperazin-1-yl]acetyl}piperazine], under setting [1], the inhibition at 4 µM is greater than 90%. `Cc1ccc(C(C(=O)N2CCN(CC(=O)N3CCN(C4CCC4)CC3)CC2)c2ccccc2)cc1` (centres unmarked) [Compound 565, 1-cyclobutyl-4-({4-[(4-methylphenyl)(phenyl)acetyl]piperazin-1-yl}acetyl)piperazine]: under setting [3], the inhibition at 4 µM is greater than 90%. With `CCSc1ncccc1C(=O)N1CCN(CC(=O)N2CCN(C3CCC3)CC2)CC1` [Compound 618, 1-cyclobutyl-4-[(4-{[2-(ethylthio)pyridin-3-yl]carbonyl}piperazin-1-yl)acetyl]piperazine], the inhibition at 4 µM under setting [1] is greater than 90%. Take `O=C(/C=C/c1ccccc1Cl)N1CCN(CC(=O)N2CCN(C3CCC3)CC2)CC1` [Compound 389, 1-[(2E)-3-(2-chlorophenyl)prop-2-enoyl]-4-[2-(4-cyclobutylpiperazin-1-yl)-2-oxoethyl]piperazine]: the inhibition at 4 µM under setting [2] was greater than 90%. Turning to `Cn1c(C(=O)N2CCN(CC(=O)N3CCN(C4CCC4)CC3)CC2)cc2ccccc21` [Compound 887, 2-({4-[2-(4-cyclobutylpiperazin-1-yl)-2-oxoethyl]piperazin-1-yl}carbonyl)-1-methyl-1H-indole], the inhibition at 4 µM (Table II "Ki", symbol "+": assay described in Example 8) was greater than 90%.

With `O=C(CN1CCN(C(=O)c2cc(F)ccc2F)CC1)N1CCN(C2CCC2)CC1` [Compound 684, 1-cyclobutyl-4-{[4-(2,5-difluorobenzoyl)piperazin-1-yl]acetyl}piperazine], under setting [1], the inhibition at 4 µM was greater than 90%.

As to `Cc1cccc(CC(=O)N2CCN(CC(=O)N3CCN(C4CCC4)CC3)CC2)c1` [Compound 555, 1-cyclobutyl-4-({4-[(3-methylphenyl)acetyl]piperazin-1-yl}acetyl)piperazine], the inhibition at 4 µM under setting [3] is greater than 90%. For `O=C(CN1CCN(C(=O)c2ccc(F)c(F)c2)CC1)N1CCN(C2CCC2)CC1` [Compound 729, 1-cyclobutyl-4-{[4-(3,4-difluorobenzoyl)piperazin-1-yl]acetyl}piperazine], under setting [1], the inhibition at 4 µM was greater than 90%.

Take `COc1ccc(/C=C/C(=O)N2CCN(CC(=O)N3CCN(C4CCC4)CC3)CC2)cc1OC` [Compound 528, 1-cyclobutyl-4-({4-[(2E)-3-(3,4-dimethoxyphenyl)prop-2-enoyl]piperazin-1-yl}acetyl)piperazine]: the inhibition at 4 µM under setting [3] is greater than 90%. Same read-out and setting: to `CCOc1ccccc1CC(=O)N1CCN(CC(=O)N2CCN(C3CCC3)CC2)CC1` [Compound 533, 1-cyclobutyl-4-({4-[(2-ethoxyphenyl)acetyl]piperazin-1-yl}acetyl)piperazine] belongs greater than 90%. `O=C(/C=C/c1c(F)cccc1Cl)N1CCN(CC(=O)N2CCN(C3CCC3)CC2)CC1` [Compound 388, 1-[(2E)-3-(2-chloro-6-fluorophenyl)prop-2-enoyl]-4-[2-(4-cyclobutylpiperazin-1-yl)-2-oxoethyl]piperazine]: under setting [2], the inhibition at 4 µM was greater than 90%. Regarding `COc1ccc(OC)c(/C=C/C(=O)N2CCN(CC(=O)N3CCN(C4CCC4)CC3)CC2)c1` [Compound 521, 1-cyclobutyl-4-({4-[(2E)-3-(2,5-dimethoxyphenyl)prop-2-enoyl]piperazin-1-yl}acetyl)piperazine], the inhibition at 4 µM under setting [3] was greater than 90%. On the same count and under the same terms, to `Cc1c(C(=O)N2CCN(CC(=O)N3CCN(C4CCC4)CC3)CC2)cnn1-c1ccccc1` [Compound 569, 1-cyclobutyl-4-({4-[(5-methyl-1-phenyl-1H-pyrazol-4-yl)carbonyl]piperazin-1-yl}acetyl)piperazine] belongs greater than 90%.
